≈ marks a conversion by molar mass, not a printed value. Structures can show the parent of a compound that is named as a salt. Where two headings read alike, the source gives them in different places.
Tests used:
Format in all cases: cell-based
S. aureus ATCC 29213 = test: In vitro antibacterial evaluation, MIC by agar dilution, S. aureus ATCC 29213; details: Staphylococcus aureus, ATCC29213
Procedure: (§1) The compounds of the invention were evaluated against several β-lactamresistant bacteria strains by determining the minimum inhibitory concentration (MIC, μg/ml) of each compound with respect to each strain. The MIC, the lowest concentration of antibiotic which inhibits growth of the test organism, was determined by the agar dilution method.
(§2) To determine the MIC for bacterial isolates, the test compound was incorporated in a series of two-fold dilutions into liquified Mueller-Hinton agar. Upon solidification, a number of different bacterial strains were spot inoculated with a replicating device onto the agar surface. […] The procedures used in these studies have been standardized by the National Committee for Clinical Laboratory Standards (NCCLS), as per the NCCLS publication entitled METHODS FOR DILUTION ANTIMICROBIAL SUSCEPTIBILITY TESTS (1991), which is incorporated herein by reference.
(§3) Aliquots of antimicrobial agents were prepared in phosphate buffered saline (PBS) at pH 7.2. Tween 20 or DMSO was used as a solubilizing vehicle as needed. Standard methods of vortexing, sonicating and gentle heat were used to facilitate solubilizing the test agent. Typically, the concentration of the stock solution was 10× that of the highest drug concentration tested. A 1.28 mg/mL stock solution was used with a subsequent highest working concentration of 128 μg/mL. Serial two-fold dilutions were done through ≤0.25 μg/mL. Each drug level was tested in duplicate. Two-fold drug dilutions were done in sterile 50 mL tubes with a final drug volume of 5 mL. Upon the addition of 45 mL of molten agar, a 10-fold dilution resulted. Two, 25 mL. plates were then poured into 15×150 mm square Petri plates with grids and allowed to harden.
(§4) A control plate with a reference drug, either cefotaxime, vancomycin or imipenem, was used as the positive growth control. Stock concentrations of reference antibiotics were prepared and frozen at -80° C. Upon preparation, the control plates were sealed and stored in the refrigerator for up to 1 week prior to use; however, imipenem control plates had to be prepared just prior to use. All test plates were used within 24 hours of preparation.
(§5) Satisfactory results were obtained where the inoculum contained about 10^4 colony forming units (cfu) ±0.5 logs. Starting with pure cultures of the test isolates on agar plates, a few isolated colonies were transferred to a tube of nutrient broth and allowed to grow 4-6 hours at 35°-36° C. to reach log-phase growth. Dropwise addition of the broth culture to PBS was done to match a 0.5 McFarland turbidity standard equal to 10^8 cfu/mL. This was further diluted ten-fold in PBS to reach a working inoculum concentration of 10^7 cfu/mL. When 1 μL of the working inoculum was applied to the agar surface a concentration of about 10^4 cfu per spot was obtained.
(§6) Disposable sterile 1 μL loops were used to inoculate test plates, with each isolate in a designated grid on the agar plate. An alternate method of inoculation involved the use of a replica plater, a device with 48 steel pins allowing the simultaneous inoculation of multiple isolates. After the spots had dried, the plates were incubated at 35°-36° C. for 16-20 hours. Endpoints were assessed as the minimum inhibitory concentration (MIC) of antimicrobial agent.

S. haemolyticus (Meth^R) = test: In vitro antibacterial evaluation, MIC by agar dilution, S. haemolyticus; details: Staphylococcus haemolyticus, read-out: MIC
Procedure: as §1, §2, §3, §4, §5, §6

[1] = tested on: S. aureus Col8A (Meth^S)(lac^-); test: In vitro antibacterial evaluation, MIC by agar dilution, S. aureus Col8A; details: Staphylococcus aureus
Procedure: as §1, §2, §3, §4, §5, §6
The novel agents of this invention are notable for their enhanced activity against S. aureus Col and Enterococci (E. faecium and E. faecalis). The S. aureus Col strain is a high-level PBP2a producer, whereas S. aureus Col 8A, its isogenic partner, lacks PBP2a. […] Thus, the compounds of the present invention are effective against PBP2a-producing bacteria.

E. faecalis ATCC 29212 = test: In vitro antibacterial evaluation, MIC by agar dilution, E. faecalis ATCC 29212; details: Enterococcus faecalis, ATCC29212; E. faecalis ATCC 29212; read-out: MIC
Procedure: as §1, §2, §3, §4, §5, §6

[2] = tested on: S. aureus 76 (Meth^R)(lac^+); test: In vitro antibacterial evaluation, MIC by agar dilution, S. aureus 76; details: Staphylococcus aureus, read-out: MIC
Procedure: as §1, §2, §3, §4, §5, §6

E. coli ATCC 25922 = test: In vitro antibacterial evaluation, MIC by agar dilution, E. coli ATCC 25922; details: Escherichia coli, ATCC25922, read-out: MIC
Procedure: as §1, §2, §3, §4, §5, §6

E. faecium ATCC 35667 = test: In vitro antibacterial evaluation, MIC by agar dilution, E. faecium ATCC 35667; details: Enterococcus faecium, ATCC35667, read-out: MIC
Procedure: as §1, §2, §3, §4, §5, §6

P. aeruginosa ATCC 27853 = test: In vitro antibacterial evaluation, MIC by agar dilution, P. aeruginosa ATCC 27853; details: Pseudomonas aeruginosa, ATCC27853, read-out: MIC
Procedure: as §1, §2, §3, §4, §5, §6

[3] = S. aureus ATCC 29213, read-out: MIC

| Structure (SMILES) | MIC (S. aureus ATCC 29213) [µg/mL] | MIC (S. haemolyticus (Meth^R)) [µg/mL] | MIC [1] [µg/mL] | MIC (E. faecalis ATCC 29212) [µg/mL] | MIC [2] [µg/mL] | MIC (E. coli ATCC 25922) [µg/mL] | MIC (E. faecium ATCC 35667) [µg/mL] | MIC (P. aeruginosa ATCC 27853) [µg/mL] | MIC (S. aureus ATCC 29213; [3]) [µg/mL] |
| --- | --- | --- | --- | --- | --- | --- | --- | --- | --- |
| N=C(N)SCc1ccccc1SC1=C(C(=O)O)N2C(=O)[C@@H](NC(=O)Cc3ccc(CN)cc3)[C@H]2SC1 [Cmpd 124, (7R)-7-[((4-aminomethylphenyl)acetyl)amino]-3-(2-isothiouroniummethylphenylthio)-3-cephem-4-carboxylate, trifluoroacetic acid salt] | 0.25 | 16 | 0.25 | 1 | 16 | > 32 | 1 | > 32 | – |
| N#Cc1ccccc1SC1=C(C(=O)O)N2C(=O)[C@@H](NC(=O)/C(=N\OC3CCCC3)c3csc(N)n3)[C@H]2SC1 [Cmpd 53, (7R)-7-[(Z)-2-(aminothiazol-4-yl)-2-(cyclopentyloxyimino)acetamido]-3-(2-cyanophenylthio)-3-cephem-4-carboxylic acid] | – | 8 (≈ 14 µM) | 1 (≈ 1.75 µM) | 8 (≈ 14 µM) | 8 (≈ 14 µM) | 1 (≈ 1.75 µM) | 8 (≈ 14 µM) | 8 (≈ 14 µM) | 1 (≈ 1.75 µM) |
| O=C(Cc1ccccc1)N[C@@H]1C(=O)N2C(C(=O)O)=C(Sc3ccnn3-c3ccccn3)CS[C@H]12 [Cmpd 105, (7R)-7-[(Phenylacetyl)amino]-3-(1-N-(pyridin-2-yl)pyrazol-5-ylthio)-3-cephem-4-carboxylic acid] | 0.25 (≈ 0.507 µM) | 32 (≈ 64.8 µM) | 0.25 (≈ 0.507 µM) | 1 (≈ 2.03 µM) | 16 (≈ 32.4 µM) | > 32 | 2 (≈ 4.05 µM) | > 32 | – |
| O=C(Cc1ccccc1)N[C@@H]1C(=O)N2C(C(=O)O)=C(Sc3ccnn3-c3ccc(F)cc3)CS[C@H]12 [Cmpd 123, (7R)-7-[(Phenylacetyl)amino]-3-(1-N-(4-fluorophenyl)pyrazol-5-ylthio)-3-cephem-4-carboxylic acid] | – | 16 (≈ 31.3 µM) | ≤ 0.06 | 2 (≈ 3.92 µM) | 8 (≈ 15.7 µM) | > 32 | 4 (≈ 7.83 µM) | > 32 | 0.06 (≈ 0.118 µM) |
| NCc1ccccc1CC(=O)N[C@@H]1C(=O)N2C(C(=O)O)=C(Sc3ccnn3-c3ccccc3)CS[C@H]12 [Cmpd 96, (7R)-7-[((2-aminomethylphenyl)acetyl)amino]-3-(1-N-phenylpyrazol-5-ylthio)-3-cephem-4-carboxylic acid] | – | 16 (≈ 30.7 µM) | 0.5 (≈ 0.959 µM) | 1 (≈ 1.92 µM) | 16 (≈ 30.7 µM) | > 32 | 4 (≈ 7.67 µM) | > 32 | 0.25 (≈ 0.479 µM) |
| O=C(Cc1ccccc1)N[C@@H]1C(=O)N2C(C(=O)O)=C(Sc3ccccc3-n3cccn3)CS[C@H]12 [Cmpd 132, (7R)-7-[(Phenylacetyl)amino]-3-(2-(pyrazol-1-yl)phenylthio)-3-cephem-4-carboxylic acid] | – | > 32 | 0.25 (≈ 0.508 µM) | 4 (≈ 8.12 µM) | 32 (≈ 65 µM) | > 32 | 4 (≈ 8.12 µM) | > 32 | 0.125 (≈ 0.254 µM) |
| O=C(Cc1ccco1)N[C@@H]1C(=O)N2C(C(=O)O)=C(Sc3ccnn3-c3ccccc3)CS[C@H]12 [Cmpd 111, (7R)-7-[(2-furylacetyl)amino]-3-(1-N-phenylpyrazol-5-ylthio)-3-cephem-4-carboxylic acid] | – | 32 (≈ 66.3 µM) | 0.25 (≈ 0.518 µM) | 4 (≈ 8.29 µM) | 16 (≈ 33.2 µM) | > 32 | 4 (≈ 8.29 µM) | > 32 | 0.5 (≈ 1.04 µM) |
| N=C(N)SCc1cccc(SC2=C(C(=O)O)N3C(=O)[C@@H](NC(=O)Cc4ccccc4)[C@H]3SC2)c1 [Cmpd 80, (7R)-7-[(Phenylacetyl)amino]-3-(3-isothiouroniummethylphenylthio)-3-cephem-4-carboxylate, inner salt] | – | 8 | < 0.06 | 1 | 8 | 16 | 2 | > 32 | < 0.06 |
| Nc1nnc(SCC(=O)N[C@@H]2C(=O)N3C(C(=O)O)=C(Sc4ccnn4-c4ccccc4)CS[C@H]23)s1 [Cmpd 120] | 0.25 (≈ 0.456 µM) | 32 (≈ 58.4 µM) | 0.25 (≈ 0.456 µM) | 4 (≈ 7.3 µM) | 16 (≈ 29.2 µM) | > 32 | 8 (≈ 14.6 µM) | > 32 | – |
| Nc1nc(/C(=N/OC2CCCC2)C(=O)N[C@@H]2C(=O)N3C(C(=O)O)=C(Sc4cccnc4-c4ccccc4)CS[C@H]23)cs1 [Cmpd 86, (7R)-7-[(Z)-2-(aminothiazol-4-yl)-2-(cyclopentyloxyimino)acetamido]-3-(2-phenylpyridin-3-ylthio)-3-cephem-4-carboxylic acid] | – | 16 (≈ 25.7 µM) | 1 (≈ 1.61 µM) | 4 (≈ 6.42 µM) | 16 (≈ 25.7 µM) | 2 (≈ 3.21 µM) | 2 (≈ 3.21 µM) | 32 (≈ 51.4 µM) | 1 (≈ 1.61 µM) |
| CCCCCC(=O)N[C@@H]1C(=O)N2C(C(=O)O)=C(Sc3ccnn3-c3ccccc3)CS[C@H]12 [Cmpd 109, (7R)-7-[(hexanoyl)amino]-3-(1-N-phenylpyrazol-5-ylthio)-3-cephem-4-carboxylic acid] | 0.125 (≈ 0.264 µM) | 32 (≈ 67.7 µM) | 0.125 (≈ 0.264 µM) | 4 (≈ 8.46 µM) | 16 (≈ 33.9 µM) | > 32 | 4 (≈ 8.46 µM) | > 32 | – |
| O=C(Cc1cccs1)N[C@@H]1C(=O)N2C(C(=O)O)=C(Sc3ccnn3-c3ccccc3)CS[C@H]12 [Cmpd 116, (7R)-7-[(2-thienylacetyl)amino]-3-(1-N-phenylpyrazol-5-ylthio)-3-cephem-4-carboxylic acid] | – | 16 (≈ 32.1 µM) | 0.125 (≈ 0.251 µM) | 2 (≈ 4.01 µM) | 16 (≈ 32.1 µM) | > 32 | 2 (≈ 4.01 µM) | > 32 | 0.25 (≈ 0.501 µM) |

— patent US5607926A, “Cephalosporin antibiotics” (Microcide Pharmaceuticals, Inc., priority 1995, dated 1997)
